Entries after “also recorded” stand apart in the source; their conditions may differ. One block for each compound: values may come before it.
Assays:
[1] = system: Bcr-Abl negative CML patients PBMC; assay: Viability of CML patients' PBMC; assay type: cell-based, human; settings: 67.5 nmole/10^5 cells, FIG. 2e; listed as NaChl
Protocol: (§1) FIG. 2. […] The flow diagram of purification is shown. […] Cell count assays were performed by plating cells in the presence of regular growth medium with or without indicated amount of extract, FIG. 2(a), fraction, FIG. 2(b), purified compound, FIG. […], and its sodium salt, FIG. 2 (d). Each day, viable cells were counted as assessed by exclusion of try pan blue, FIG. […]. Viability of PBMC obtained from three Ph^+ CML patients and one Ph^− CML patient after treatment with Na-Chl (67.5 nmole/10^5 cells), FIG. 2(f), Morphological changes of K562 cells after treatment with NaChl (67.5 nmole/10^5 cells) for 6 h (phase contrast micrographs, ×400).
(§2) Culture of Bcr-Abl positive CML cell line (K562), peripheral blood cells of CML patients, Bcr-Abl-negative ALL cell line (Molt-4) and peripheral blood cells of CML patients. Cell count assays were performed by plating cells in the presence of regular growth medium with or without indicated amount of extract, fraction, purified compound and its sodium salt. Each day, viable cells were counted as assessed by exclusion of trypan blue.

[2] = system: Philadelphia chromosome (Bcr-Abl) positive CML patients PBMC; assay: Viability of CML patients' PBMC; assay type: cell-based, human; settings: 67.5 nmole/10^5 cells, FIG. 2e; listed as NaChl
Protocol: as §1, §2

K562 cells [3] = assay: Morphology analysis by phase contrast microscopy; assay type: cell-based, human; settings: 67.5 nmole/10^5 cells, 6 h, FIG. 2f
Protocol: as §1
Morphology analysis of Bcr-Abl positive CML cell line K562 by phase contrast microscopy. Cells were left untreated (NT) or treated with NaChl (Nachl; 67.5 nmole/10^5 cells) and viewed under phase contrast microscope (magnification ×400).

Molt-4 cells [4] = assay: Apoptosis by flow cytometry (annexin V-FITC/PI); assay type: cell-based; settings: 67.5 nmole/10^5 cells, 6 h, FIG. 3a
Protocol: (§3) FIG. 3(a). Cells were left untreated (NT) or incubated with NaChl (67.5 nmole/10^5 cells) for 6 h and processed for flow cytometry after staining with annexin V-FITC and PI. Viable cells are in the lower left quadrant. Apoptotic cells stained by annexin V are in the lower right quadrant. Late stage apoptotic cells stained by both annexin V and PI are in the upper right quadrant.
(§4) Measurement of apoptosis by flow cytometry. Cells were left untreated or treated with NaChl (67.5 nmole/10^5 cells) for 6 h. After washing, cells were stained with fluorescein isothyocyanate (FITC) conjugated Annexin V and propidium iodide (PI) and analysed in a flow cytometer (FACS Calibur, Beckton Dickinson, USA).

K562 cells [5] = assay: Apoptosis by flow cytometry (annexin V-FITC/PI); assay type: cell-based, human; settings: 67.5 nmole/10^5 cells, 6 h, FIG. 3a
Protocol: as §3, §4

[6] = system: PBMC of Bcr-Abl negative CML patients; assay: Apoptosis by flow cytometry (annexin V-FITC/PI); assay type: cell-based, human; settings: 67.5 nmole/10^5 cells, 6 h, FIG. 3a
Protocol: as §3, §4

[7] = system: PBMC of Bcr-Abl positive CML patients; assay: Apoptosis by flow cytometry (annexin V-FITC/PI); assay type: cell-based, human; settings: 67.5 nmole/10^5 cells, 6 h, FIG. 3a
Protocol: as §3, §4

normal PBMC = assay: Apoptosis by flow cytometry (annexin V-FITC/PI); assay type: cell-based, human; settings: 67.5 nmole/10^5 cells, 6 h, FIG. 3a
Protocol: as §3, §4

K562 cells [8] = assay: DNA cell cycle analysis (PI staining); assay type: cell-based, human; settings: 1 or 2 days culture, FIG. 3b
Protocol: (§5) FIG. 3(b). Treatment with NaChl results in early cell cycle arrest followed by apoptosis in Ph^+ cells. Cells were cultured in the presence or absence of NaChl. After 1 or 2 days in culture, cells were collected, permeabilized, and stained with PI for DNA content analysis. Gates were set to assess the percentages of dead (<2n DNA, M1). G0/G1 (2n DNA, M2), and S+G2+M (>2n DNA, M3) cells.
(§6) DNA cell cycle analysis. Cells were cultured with NaChl as described in example 5. After 1 or 2 days culture, cells were collected, permeabilized and stained with PI for DNA cell cycle analysis.

[9] = system: PBMC of Bcr-Abl positive CML patients; assay: DNA cell cycle analysis (PI staining); assay type: cell-based, human; settings: 1 or 2 days culture, FIG. 3b
Protocol: as §5, §6

K562 cells [10] = assay: Confocal microscopy, Annexin V staining; assay type: cell-based, human; settings: K562, FIG. 3c
Protocol: (§7) FIG. 3(e). Fluorescence images of K562 and Molt-4 cells after treatment with NaChl followed by staining with annexin V-Allexa™ staining with annex in V are shown in left panels and bright filed phase contrast views are shown in right panels.
(§8) Confocal microscopy. K562 and Molt-4 cells were treated with NaChl followed by staining with Annexin-V -Allexa™ as described in example 5, and allowed to adhere onto poly-L-lysine-coated coverslips for 10 min. Representative fields of cells were analysed with a Leica TCS SP2 confocal laser scanning microscope (Heidelberg, Germany).

Molt-4 cells [11] = assay: Confocal microscopy, Annexin V staining; assay type: cell-based; settings: Molt-4, FIG. 3c
Protocol: as §7, §8

K562 cells [12] = assay: Immunoblot detection of caspase 3 activation; assay type: cell-based, human; settings: 24 h, FIG. 3d
Protocol: (§9) FIG. 3(d). Treatment with NaChl leads to activation of procaspase-3 in Ph+ cells. Cells were left untreated or treated with NaChl (T) for 24 h. Cells were harvested, lysed, equivalent amount of lysates were separated by SDS-PAGE and electrotransferred. The filters were probed with anti-caspase-3 that recognize both procaspase3 (32 Kda, upper band) and caspase-3 cleavage product (17 Kda, lower band).
(§10) Immunoblot assay. Cells were harvested, lysed, equivalent amount of lysates were separated by SDS-PAGE and electro-transferred. The filters were probed with anti-caspase-3 antibody (B.D. Pharmingen), anti-c-Abl antibody or anti-phospho-c-Abl antibody (Cell Signaling Technology).

[13] = system: PBMC of Bcr-Abl (Ph) positive CML patients; assay: Immunoblot detection of caspase 3 activation; assay type: cell-based, human; settings: 24 h, FIG. 3d
Protocol: as §9, §10

[14] = system: PBMC of Bcr-Abl negative CML patients; assay: Immunoblot detection of caspase 3 activation; assay type: cell-based, human; settings: 24 h, FIG. 3d
Protocol: as §9, §10

PBMC of normal donors = assay: Immunoblot detection of caspase 3 activation; assay type: cell-based, human; settings: 24 h, FIG. 3d
Protocol: as §9, §10

Molt-4 cells [15] = assay: Immunoblot detection of caspase 3 activation; assay type: cell-based; settings: 24 h, FIG. 3d
Protocol: as §9, §10

[16] = target: T1, Bcr-Abl protein tyrosine kinase (Homo sapiens, UniProt P00519); assay: Abl phosphorylation status by flow cytometry and immunoblot; assay type: cell-based; settings: 3 h, anti-phospho-c-Abl (Tyr245), FIG. 4a, 4b
T1 construct: triggering apoptosis of Bcr-Abl expressing CML cell line K562; BCR N-terminal portion (natural fusion partner, P11274); endogenous in cells; host or cells: Ph+ cells: K562 and PBMC of Bcr-Abl positive CML patients; the other entry of the earlier key: BCR (P11274, Breakpoint cluster region protein)
Protocol: FIG. 4(a) Flow cytometric determination of Abl phosphorylation status. Cells were left untreated (NT) or incubated with NaChl (T) for 3 h, permeabilized and stained with rabbit anti-phospho-c-Abl (Tyr245) antibody. Dotted line, staining with normal rabbit IgG; solid line, staining with immune IgG.
(§11) FIG. 4(b) Immuno-blot-based determination of Abl phosphorylation status. Cells were harvested, lysed, equivalent amount Iysates were separated by SDS-P AGE and electrotransferred. The filters were probed with anti-phospho-c-Abl (Tyr 245) (upper panels) or anti-c-Abl antibody (middle panels).
as §10
(§12) Flow cytometric determination of Abl phosphorylation or Abl expression status. Cells were permeabelysed, stained with rabbit anti-phospho-c-Abl antibody, anti-c-Abl antibody or control rabbit antibody and analysed in a flow cytometer.

Abl protein = assay: Abl expression status by flow cytometry and immunoblot; assay type: cell-based, human; settings: anti-c-Abl antibody, FIG. 4b, 4c
Excerpt: as §11
FIG. 4(c) Flow cytometric determination of Abl expression status. Cells were permeabilized and stained with rabbit anti-c-Abl antibody. Dotted line, staining with normal rabbit IgG; solid line, staining with immune IgG.
as §10, §12

K562 xenografts = assay: In vivo studies on K562 xenografts in nude mice; set-up: species or system mouse; settings: 25-150 mg/kg intraperitoneally once a day for 10 days, FIG. 5
Protocol: FIG. 5. K562 cells embedded in Matrigel were staged in nude mice until tumors reached 200-300 mm^3. PBS (●), NaChl (25 mg/kg, □; 100 mg/kg, A; 150 mg/kg, ∘) were administered intraperitoneally once a day for ten days.
In vivo studies on K562 xenografts: K562 cells were suspended to 5×10^7 cells/ml in matrigel (BD Biosciences, Mountain View, Calif.; 1 volume of cells with 1 volume of cold Matrigel). Nude female mice 6 to 7 weeks of age were given injections of 0.2 ml of this suspension. Animals were left untreated until K562 xenografts reached 200-300 mm^3. […] Phosphate buffered saline (PBS, 0.2 ml per mouse) was used as a control. Animal studies were conducted under an approved institutional Animal Care and Use Committee protocol.

[17] = system: STI571-sensitive K562 cells; assay: Proliferation by [3H]thymidine uptake; assay type: cell-based, human; settings: 48 h, graded concentrations, FIG. 6
Protocol: (§13) FIG. 6. […] K562 and K562-R cells were incubated with graded concentrations of ST1571 (A) or NaChl (B) for 48 h, proliferation was then determined by [^3H] thymidine uptake.
(§14) K562 and STI571-resistant K562 cells (K562-R) were incubated with graded concentrations of ST1571 or NaChl for 48 hours, proliferation was then determined by [^3H]thymidine uptake.

[18] = system: STI571-resistant K562 cells (K562-R); assay: Proliferation by [3H]thymidine uptake; assay type: cell-based, human; settings: 48 h, graded concentrations, FIG. 6
Protocol: as §13
K562 cells were incubated with increasing concentrations of STI571 (received as gift in the form of Gleevec from a CML patient receiving Gleevec therapy), and surviving cells were collected by centrifugation and treated with 2-fold higher concentrations of STI571 (Donato, N. J. et al. Blood, 101:690-698, 2003).
as §14

[19] = system: normal human peripheral blood mononuclear cells (HPBMC); assay: Cytokine production by HPBMC (ELISA); assay type: cell-based; settings: for Concentration of Cytokines: IFN-γ / Concentration of Cytokines: IL-2 / Concentration of Cytokines: IL-6: HPBMC, 18 hrs
Excerpt: Supernatants were collected and quantitated for IL-2, IFN-γ, IL-6 by commercial ELISA.

[20] = system: Bcr-Abl positive CML cell line (K562); assay: Cell count assay, viable cells by trypan blue exclusion; assay type: cell-based, human
Protocol: Cell count assays were performed by plating cells in the presence of regular growth medium with or without indicated amount of extract, FIG. 2(a), fraction, FIG. 2(b), purified compound, FIG. 2(e), and its sodium salt, FIG. 2 (d). Each day, viable cells were counted as assessed by exclusion of try pan blue, FIG. 2(e).

[21] = PHA 2.5 μg/ml + LPS 1.0 μg/ml + Chl 25 μg/ml

T1 sequence (P00519 28-1130 limits assumed): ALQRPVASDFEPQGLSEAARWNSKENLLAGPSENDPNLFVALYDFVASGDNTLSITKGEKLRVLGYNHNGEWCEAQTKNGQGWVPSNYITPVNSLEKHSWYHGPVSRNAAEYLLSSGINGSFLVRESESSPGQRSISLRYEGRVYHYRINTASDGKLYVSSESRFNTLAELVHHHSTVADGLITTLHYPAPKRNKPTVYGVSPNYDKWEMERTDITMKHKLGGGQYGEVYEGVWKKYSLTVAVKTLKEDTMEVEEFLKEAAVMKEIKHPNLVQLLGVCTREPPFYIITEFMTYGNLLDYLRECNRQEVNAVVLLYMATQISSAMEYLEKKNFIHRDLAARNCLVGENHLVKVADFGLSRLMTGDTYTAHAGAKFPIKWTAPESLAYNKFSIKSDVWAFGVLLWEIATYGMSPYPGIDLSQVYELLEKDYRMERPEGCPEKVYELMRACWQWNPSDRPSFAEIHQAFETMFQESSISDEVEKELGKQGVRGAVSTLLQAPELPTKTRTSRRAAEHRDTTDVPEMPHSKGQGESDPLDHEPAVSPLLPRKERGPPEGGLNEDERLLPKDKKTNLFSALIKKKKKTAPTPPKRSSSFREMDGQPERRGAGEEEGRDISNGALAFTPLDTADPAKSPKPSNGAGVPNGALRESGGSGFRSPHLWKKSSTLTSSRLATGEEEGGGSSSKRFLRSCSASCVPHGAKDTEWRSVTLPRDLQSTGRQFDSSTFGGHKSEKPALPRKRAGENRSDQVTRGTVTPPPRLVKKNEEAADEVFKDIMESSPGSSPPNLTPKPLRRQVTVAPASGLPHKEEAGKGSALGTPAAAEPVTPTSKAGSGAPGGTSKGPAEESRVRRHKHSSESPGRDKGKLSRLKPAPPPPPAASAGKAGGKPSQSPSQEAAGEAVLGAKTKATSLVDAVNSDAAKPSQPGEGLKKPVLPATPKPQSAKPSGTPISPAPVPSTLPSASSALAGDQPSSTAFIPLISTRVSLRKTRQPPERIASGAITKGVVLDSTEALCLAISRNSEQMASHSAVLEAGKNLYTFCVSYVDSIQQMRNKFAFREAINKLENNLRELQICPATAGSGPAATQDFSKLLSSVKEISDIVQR

- phosphorylation of Bcr-Abl protein tyrosine kinase [16]: inhibits phosphorilation
SMILES: O=C(/C=C/c1ccc(O)c(O)c1)O[C@@H]1C[C@](O)(C(=O)[O-])C[C@@H](O)[C@H]1O.[Na+] [sodium chlorogenate]
- effect on Bcr-Abl negative CML patients PBMC [1]: no effect; also recorded: without any effects
- killing of Bcr-Abl positive CML patients PBMC [2]: active in killing; also recorded: destroys
- morphological changes in K562 cells (K562 cells [3]): induces morphological changes (nuclear condensation)
- apoptosis (Molt-4 cells [4]): did not induce apoptosis
- apoptosis (K562 cells [5]): increase in apoptosis
- apoptosis [6]: did not induce apoptosis
- apoptosis [7]: increase in apoptosis
- apoptosis (normal PBMC): remain virtually unaffected
- apoptosis (normal PBMC; listed as NaChl): did not induce apoptosis
- DNA cell cycle (K562 cells [8]): induces cell cycle arrest followed by breakdown of DNA
- DNA cell cycle [9]: induces cell cycle arrest followed by breakdown of DNA
- Annexin V staining (confocal) (K562 cells [10]): positive Annexin V staining
- Annexin V staining (confocal) (Molt-4 cells [11]): not in Molt-4 cells
- apoptosis by caspase 3 activation (K562 cells [12]): Apoptosis in K562 cells
- apoptosis by caspase 3 activation [13]: Apoptosis
- apoptosis by caspase 3 activation [14]: not
- apoptosis by caspase 3 activation (PBMC of normal donors): not
- apoptosis by caspase 3 activation (Molt-4 cells [15]): not in Molt-4 cells
- expression of Abl protein level (Abl protein): without affecting the expression
- tumor growth of K562 xenografts (K562 xenografts): reduced the tumor growth in a dose dependent manner
- apoptosis/proliferation of STI571-sensitive K562 cells [17]: induces apoptosis
- apoptosis/proliferation of STI571-resistant K562 cells [18]: induces apoptosis
- production of interferon gamma ([19]; statement referring to Table II): significantly inhibits

- IC50 ([20]; Homo sapiens, in vitro, K562 cells, FIGS. 2C & 2D): 27 µM
SMILES: O=C(/C=C/c1ccc(O)c(O)c1)O[C@@H]1C[C@](O)(C(=O)O)C[C@@H](O)[C@H]1O [chlorogenic acid]
- killing of K562 cells ([20]; cell count, FIG. 2a-2c): higher killing activity of K562 cells compare to crude extract or fraction E
- Concentration of Cytokines: IFN-γ ([19]; Chl 25 μg/ml alone): 19.4 pg/mL
- Concentration of Cytokines: IL-2 ([19]; Chl 25 μg/ml alone): 6.8 pg/mL
- Concentration of Cytokines: IL-6 ([19]; Chl 25 μg/ml alone): 781.9 pg/mL
- Concentration of Cytokines: IFN-γ [19, 21]: 13.8 pg/mL
- Concentration of Cytokines: IL-2 [19, 21]: 2.5 pg/mL
- Concentration of Cytokines: IL-6 [19, 21]: 1899.0 pg/mL
- production of IL-2, IFN-γ, and IL-6 by HPBMC after stimulation with PHA and LPS ([19]; PHA and LPS stimulation): significantly inhibited
- spontaneous production of IL-2, IFN-γ, and IL-6 by HPBMC ([19]; no stimulation): inhibits

— patent publication US20070161704A1, “Pharmaceutical composition useful for treating chronic myeloid leukemia” (COUNCIL OF SCIENTIFIC AND INDUSTRIAL RESEARCH, priority 2002, published 2007)
